Test results published in publication PMC6689975, “Novel Cell Wall Antifungals Reveal a Special Synergistic Activity in pbr1 Mutants Resistant to the Glucan Synthesis Antifungals Papulacandins and Echinocandins” (Frontiers in Microbiology, 2019).
Values after ≈ are worked out from the molar mass of the structure shown. Where two headings read alike, the source gives them in different places.

Tests used:
Test in all cases: microbe, parasite or virus in culture
[1] = system: T1, S. cerevisiae wild-type CVX12-3A; design: species or system whole yeast cells; macro tube broth dilution MIC in YEPD at 30 C, visual clearness of medium; settings: Saccharomyces cerevisiae, 48 h
T1 construct: CVX12-3A
Description: (§1) Standard YEPD (Yeast Extract, Peptone, Dextrose) ([Sherman, 1990]), YEPD+S (YEPD with 1.2M sorbitol), YES (Yeast Extract, Dextrose and Supplements of Adenine, Histidine, Leucine, Uracil and Lysine) ([Alfa et al., 1993]) and YES+S (YES with 1.2 M sorbitol) ([Ribas et al., 1991]; [Ishiguro et al., 1997]), media were used for determination of MIC values of the tested compounds. A stock solution of 10 mg/ml of each tested compounds was prepared in DMSO and serial dilutions in DMSO were prepared. The final concentration of DMSO was 2% in the YEPD medium. […] The serial dilutions of compounds were dispensed into test tubes with 1 ml of YEPD or YEPD+S to make final concentrations of 200, 100, 50, 25, 12.5, 6.26, 3.125, 1.6, 0.8 and 0.4 μg/ml. The tested yeast strains were previously grown in YEPD, YEPD+S, YES or YES+S agar plates at 30°C for 48 h. For inoculation of YEPD or YEPD+S macro test tubes a suspension of tested fungus was produced with 10^5 cfu/ml (cfu - colony forming unit). 10 μl of suspension was used for inoculation of each tube. After 48 h incubation at 30°C the tubes were checked. The MIC value is the lowest concentration of the tested compound that could inhibit the fungal growth and the medium remained clear. From each tube 10 μl culture was plated on YEPD agar medium to check the contamination. The MIC tests were carried out in three parallels. The screening of the first generation of isochromanones was carried out in YEPD and YEPD+S media (1E-16E). The fungal strains analyzed are: C. albicans wild-type ATCC 26555, SC5314 and ATCC 90028, S. cerevisiae wild-type CVX12-3A and pbr1-1 mutant, and S. pombe wild-type (972h^–), pbr1-8 mutant and pbr1-6 mutant. The bold numbers in Tables 4–6 indicate the more efficient compounds. […] The weak or moderate efficacy against the C. albicans wild-type strains was observed by some substances (3E, 4Z, 5Z, 10E, 15, and 16E). The efficiency toward the S. pombe pbr1-6 mutant strain was the highest inhibitory activity, except 7E, 11E, 12 and 14E. […] As regards the other S. pombe pbr1-8 mutant strain, the antifungal activity of the tested compounds was slightly lower, but the substances with the best activity are partly identical to the best compounds mentioned with pbr1-6, (i.e., 1E, 3E, 4Z, 5Z).

[2] = system: T2, S. pombe wild-type 972 h-; design: species or system whole yeast cells; macro tube broth dilution MIC in YEPD at 30 C, visual clearness of medium; settings: Schizosaccharomyces pombe, 48 h
T2 construct: 972 h-
Description: as §1

[3] = system: T3, Schizosaccharomyces pombe S. p.^a (wild-type 972 h-); design: species or system yeast; micro tube dilution MIC in YES (± 1.2 M sorbitol), complete growth inhibition by turbidity; settings: 48 h
T3 construct: 972 h-
Description: (§2) Standard YEPD (Yeast Extract, Peptone, Dextrose) ([Sherman, 1990]), YEPD+S (YEPD with 1.2M sorbitol), YES (Yeast Extract, Dextrose and Supplements of Adenine, Histidine, Leucine, Uracil and Lysine) ([Alfa et al., 1993]) and YES+S (YES with 1.2 M sorbitol) ([Ribas et al., 1991]; [Ishiguro et al., 1997]), media were used for determination of MIC values of the tested compounds. A stock solution of 10 mg/ml of each tested compounds was prepared in DMSO and serial dilutions in DMSO were prepared. The final concentration of DMSO was 2% in the YEPD medium. […] The serial dilutions of compounds were dispensed into test tubes with 1 ml of YEPD or YEPD+S to make final concentrations of 200, 100, 50, 25, 12.5, 6.26, 3.125, 1.6, 0.8 and 0.4 μg/ml. The tested yeast strains were previously grown in YEPD, YEPD+S, YES or YES+S agar plates at 30°C for 48 h. Micro-culture assays of large numbers of samples were analyzed as described) ([Martins et al., 2011]). Essentially early log-phase cells were grown in YEPD, YEPD+S, YES or YES+S (1.2 M sorbitol) medium at 30°C, and diluted to cell density of 4 X 10^6 cells/ml in YEPD, YEPD+S, YES or YES+S medium and aliquots of 100 μl were dispensed into each small test tube (3 ml test tube size). Then, another 100 μl of YEPD, YEPD+S, YES or YES+S with the corresponding dilution of each compound at 2X concentration (4% DMSO) was added. The final volume was 200 μl, with the cells diluted to of 2 X 10^6 cells/ml and each compound diluted to 1X final concentration, containing increasing concentrations of antifungal (0, 1, 2, 5, 10, 20, 50, 100 and 200 μg/ml) or an equivalent volume of solvent (2% DMSO). The cells were grown at 30°C in an orbital roller and turbidity was analyzed after 24 and 48 h of incubation. The MIC was determined as the minimal concentration of tested compound that produced complete cell growth inhibition and kept the medium clear. The MIC values were calculated from at least three independent experiments.

[4] = system: Candida albicans C. a.^f (Tables 5, 6); design: species or system yeast; micro tube dilution MIC in YES (± 1.2 M sorbitol), complete growth inhibition by turbidity; settings: 48 h
Description: as §2

[5] = system: T4, Saccharomyces cerevisiae S. c.^d (wild-type CVX12-3A); design: species or system yeast; micro tube dilution MIC in YES (± 1.2 M sorbitol), complete growth inhibition by turbidity; settings: 48 h
T4 construct: CVX12-3A
Description: as §2

Compound `CC[C@H](C)C[C@H](C)CCCCCCCCC(=O)N[C@H]1C[C@@H](O)[C@@H](NCCN)NC(=O)[C@@H]2[C@@H](O)CCN2C(=O)[C@H]([C@H](O)CCN)NC(=O)[C@H]([C@H](O)[C@@H](O)c2ccc(O)cc2)NC(=O)[C@@H]2C[C@@H](O)CN2C(=O)[C@H]([C@@H](C)O)NC1=O` [caspofungin] has an MIC ([1]; read-out: MIC) of 1 µg/mL (≈ 0.915 µM), an MIC ([2]; read-out: MIC) of 5 µg/mL (≈ 4.57 µM) and an MIC ([3]; read-out: MIC) of 10 µg/mL (≈ 9.15 µM). It also gave an MIC ([4]; read-out: MIC) of 50 µg/mL (≈ 45.7 µM) and an MIC ([5]; read-out: MIC) of 0.5 µg/mL (≈ 0.457 µM).
In the case of `O=c1oc2ccc3ccccc3c2cc1-c1ccccc1CO` [compound 12], the MIC ([1]; YEPD medium) was 100 µg/mL (≈ 331 µM), the MIC ([2]; YEPD medium) was 200 µg/mL (≈ 662 µM) and the MIC ([3]; YES + 1.2 M sorbitol) was > 200 µg/mL. The MIC ([4]; YES + 1.2 M sorbitol) was > 200 µg/mL and the MIC ([5]; YES + 1.2 M sorbitol) was > 200 µg/mL.
With `O=c1oc2ccccc2cc1-c1ccccc1CO` [compound 15] the MIC ([1]; YEPD medium) was 50 µg/mL (≈ 198 µM), the MIC ([2]; YEPD medium) was 100 µg/mL (≈ 396 µM) and the MIC ([3]; YES + 1.2 M sorbitol) was > 200 µg/mL. The MIC ([4]; YES + 1.2 M sorbitol) was > 200 µg/mL and the MIC ([5]; YES + 1.2 M sorbitol) was > 200 µg/mL.
